Reference: patent US20150265691A1 (priority 2006, published 2015)

test system: rabbit anti-anthrax spore IgG; assay type: binding

Molecule | IC50 | relative inhibiting powers | inhibition of antibody reactivity with anthrose-tetrasaccharide
COC(=O)CCCCCO[C@@H]1O[C@@H](C)[C@H](O)[C@@H](O[C@@H]2O[C@H](C)[C@@H](NC(=O)CC(C)(C)O)[C@H](O)[C@H]2OC)[C@H]1O [Saccharide 2, 5-(Methoxycarbonyl)pentyl 4-(3-hydroxy-3-methylbutanamido)-2-O-methyl-4,6-dideoxy-β-D-glucopyranosyl-(1→3)-α-L-rhamnopyranoside] | 0.019 nM | 1.18 | –
Nigerose [reference compound] | – | – | no inhibition
isomaltopentose [IM5, reference compound] | – | – | no inhibition

test system: rabbit anti-B. anthracis spore polyclonal IgG antibodies; assay type: binding

Molecule | IgG signal detected by glycan arrays (n = 3) Mean | antibody reactivity detected by glycan arrays | IgG reactivities (Ratio of Sg./bg.) Mean
COC(=O)CCCCCO[C@@H]1O[C@@H](C)[C@H](O)[C@@H](O[C@@H]2O[C@H](C)[C@@H](NC(=O)CC(C)(C)O)[C@H](O)[C@H]2OC)[C@H]1O [Saccharide 2, 5-(Methoxycarbonyl)pentyl 4-(3-hydroxy-3-methylbutanamido)-2-O-methyl-4,6-dideoxy-β-D-glucopyranosyl-(1→3)-α-L-rhamnopyranoside] | 1.65 | marginally reactive | –
C[C@H](O)[C@H](O)[C@@H](O)[C@@H](O)C=O [Saccharide 6, L-Rhamnose] | 1.03 | – | –
C[C@@H](O)[C@H](O)[C@H](O)[C@@H](O)C=O [Saccharide 7, D-Fucose] | 1.88 | – | –
O=C[C@H](O)[C@@H](O)[C@@H](O)[C@H](O)CO [Saccharide 8, D-Galactose] | 1.06 | – | –
O=C[C@H](O)[C@@H](O)[C@H](O)[C@H](O)CO [Saccharide 9, D-Glucose] | 1.04 | – | –
O=C[C@@H](O)[C@@H](O)[C@H](O)[C@H](O)CO [Saccharide 10, D-Mannose] | 1.03 | – | –
CC(=O)N[C@@H](C=O)[C@@H](O)[C@@H](O)[C@H](O)CO [Saccharide 11, N-acetyl-2-amino-2-deoxy-D-galactose] | 1.03 | – | –
O=C[C@H](O)[C@@H](O)[C@@H](O)CO [Saccharide 12, L-Arabinose] | 1.03 | – | –
O=C[C@H](O)[C@H](O)[C@@H](O)[C@@H](O)CO [Saccharide 13, L-Mannose] | 1.06 | – | –
COC(=O)CCCCCO[C@@H]1O[C@@H](C)[C@H](O)[C@@H](O)[C@H]1O [Saccharide 14, 5-(Methoxycarbonyl)pentyl α-L-rhamnopyranoside] | 0.97 | – | –
COC(=O)CCCCCO[C@H]1O[C@@H](C)[C@H](O)[C@@H](O)[C@H]1O [Saccharide 15, 5-(Methoxycarbonyl)pentyl β-L-rhamnopyranoside] | 0.95 | – | –
COC(=O)CCCCCO[C@@H]1O[C@@H](C)[C@H](O)[C@@H](O[C@@H]2O[C@@H](C)[C@H](O)[C@@H](O)[C@H]2O)[C@H]1O [Saccharide 16, 5-(Methoxycarbonyl)pentyl α-L-rhamnopyranosyl-(1→3)-α-L-rhamnopyranoside] | 1.00 | – | –
COC(=O)CCCCCO[C@@H]1O[C@@H](C)[C@H](O)[C@@H](O)[C@H]1O[C@@H]1O[C@@H](C)[C@H](O)[C@@H](O)[C@H]1O [Saccharide 18, 5-(Methoxycarbonyl)pentyl α-L-rhamnopyranosyl-(1→2)-α-L-rhamnopyranoside] | 1.26 | – | –
COC(=O)CCCCCO[C@H]1O[C@@H](C)[C@H](O)[C@@H](O)[C@H]1O[C@@H]1O[C@@H](C)[C@H](O)[C@@H](O)[C@H]1O [Saccharide 19, 5-(Methoxycarbonyl)pentyl α-L-rhamnopyranosyl-(1→2)-β-L-rhamnopyranoside] | 0.98 | – | –
COC(=O)CCCCCO[C@H]1O[C@@H](C)[C@H](O)[C@@H](O)[C@H]1O[C@@H]1O[C@@H](C)[C@H](O)[C@@H](O[C@@H]2O[C@@H](C)[C@H](O)[C@@H](O)[C@H]2O)[C@H]1O [Saccharide 20, 5-(Methoxycarbonyl)pentyl α-L-rhamnopyranosyl-(1→3)-α-L-rhamnopyranosyl-(1→2)-β-L-rhamnopyranoside] | 0.95 | – | –
CO[C@H]1O[C@H](CO)[C@H](O)[C@H](O)[C@H]1O[C@@H]1O[C@@H](C)[C@H](O)[C@@H](O)[C@H]1O [Saccharide 21, Methyl <-L-rhamnopyranosyl-(1→2)-<-D-galactopyranoside, reference compound] | 1.08 | – | –
CO[C@H]1O[C@H](CO)[C@H](O)[C@H](O)[C@H]1O[C@@H]1O[C@@H](C)[C@H](O)[C@@H](O[C@@H]2O[C@@H](C)[C@H](O)[C@@H](O[C@H]3O[C@H](CO)[C@@H](O)[C@H](O)[C@H]3NC(C)=O)[C@H]2O)[C@H]1O [Saccharide 22, Methyl 2-acetamido-2-deoxy-<-D-glucopyranosyl-(1→3)-<-L-rhamnopyranosyl-(1→3)-<-L-rhamnopyranosyl-(1→2)-<-D-galactopyranoside, reference compound] | 0.95 | – | –
CO[C@H]1O[C@H](CO)[C@@H](O)[C@H](O[C@H]2O[C@H](CO)[C@H](O)[C@H](O)[C@H]2O[C@@H]2O[C@@H](C)[C@H](O)[C@@H](O)[C@H]2O)[C@H]1NC(C)=O [Saccharide 23, Methyl <-L-rhamnopyranosyl-(1→2)-<-D-galactopyranosyl-(1→3)-2-acetamido-2-deoxy-<-D-glucopyranoside] | 1.01 | – | –
CO[C@@H]1O[C@@H](C)[C@H](O)[C@@H](O[C@@H]2O[C@@H](C)[C@H](O)[C@@H](O)[C@H]2O)[C@H]1O [Saccharide 24, Methyl <-L-rhamnopyranosyl-(1→3)-<-L-rhamnopyranoside, reference compound] | 1.02 | – | –
CO[C@H]1O[C@H](CO)[C@H](O)[C@H](O)[C@H]1O[C@@H]1O[C@@H](C)[C@H](O)[C@@H](O[C@@H]2O[C@@H](C)[C@H](O)[C@@H](O)[C@H]2O)[C@H]1O [Saccharide 25, Methyl <-L-rhamnopyranosyl-(1→3)-<-L-rhamnopyranosyl-(1→2)-<-D-galactopyranoside, reference compound] | 1.02 | – | –
CO[C@H]1O[C@H](CO)[C@@H](O)[C@H](O[C@H]2O[C@H](CO)[C@H](O)[C@H](O)[C@H]2O[C@@H]2O[C@@H](C)[C@H](O)[C@@H](O[C@@H]3O[C@@H](C)[C@H](O)[C@@H](O)[C@H]3O)[C@H]2O)[C@H]1NC(C)=O [Saccharide 26, Methyl <-L-rhamnopyranosyl-(1→3)-<-L-rhamnopyranosyl-(1→2)-<-D-galactopyranosyl-(1→3)-2-acetamido-2-deoxy-<-D-glucopyranoside] | 1.01 | – | –
CO[C@H]1O[C@H](C)[C@@H](NC(=O)[C@@H](O)CCO)[C@H](O)[C@@H]1O[C@H]1O[C@H](C)[C@@H](NC(=O)[C@@H](O)CCO)[C@H](O)[C@@H]1O[C@H]1O[C@H](C)[C@@H](NC(=O)[C@@H](O)CCO)[C@H](O)[C@@H]1OC [Saccharide 27, Methyl 2-O-methyl-4,6-dideoxy-4-(3-deoxy-L-glycero-tetronamido)-<-D-mannopyranosyl-(1→2)-4,6-dideoxy-4-(3-deoxy-L-glycero-tetronamido)-<-D-mannopyranosyl-(1→2)-4,6-dideoxy-4-(3-deoxy-L-glycero-tetronamido)-<-D-mannopyranoside] | 1.01 | – | –
CO[C@H]1O[C@H](C)[C@@H](NC(=O)[C@@H](O)CCO)[C@H](O)[C@@H]1O[C@H]1O[C@H](C)[C@@H](NC(=O)[C@@H](O)CCO)[C@H](O)[C@@H]1O[C@H]1O[C@H](C)[C@@H](NC(=O)[C@@H](O)CCO)[C@H](O)[C@@H]1O[C@H]1O[C@H](C)[C@@H](NC(=O)[C@@H](O)CCO)[C@H](O)[C@@H]1OC [Saccharide 28, Methyl 2-O-methyl-4,6-dideoxy-4-(3-deoxy-L-glycero-tetronamido)-<-D-mannopyranosyl-(1→2)-bis-[4,6-dideoxy-4-(3-deoxy-L-glycero-tetronamido)-<-D-mannopyranosyl-(1→2)]-4,6-dideoxy-4-(3-deoxy-L-glycero-tetronamido)-<-D-mannopyranoside] | 1.07 | – | –
Methyl 2-O-methyl-4,6-dideoxy-4-(3-deoxy-L-glycero-tetronamido)-<-D-mannopyranosyl-(1→2)-tetrakis[4,6-dideoxy-4-(3-deoxy-L-glycero-tetronamido)-<-D-mannopyranosyl-(1→2)]-4,6-dideoxy-4-(3-deoxy-L-glycero-tetronamido)-<-D-mannopyranoside [Saccharide 30] | 1.67 | – | –
Methyl 2-O-methyl-4,6-dideoxy-4-(3-deoxy-L-glycero-tetronamido)-<-D-mannopyranosyl-(1→2)-tris[4,6-dideoxy-4-(3-deoxy-L-glycero-tetronamido)-<-D-mannopyranosyl-(1→2)]-4,6-dideoxy-4-(3-deoxy-L-glycero-tetronamido)-<-D-mannopyranoside [Saccharide 29] | 1.09 | – | –
Streptococcus pneumoniae type 23 capsular polysaccharide [Saccharide 35] | – | positive spots | 12.35
[Methyl 2-O-methyl-4,6-dideoxy-4-(3-deoxy-L-glycero-tetronamido)-<-D-mannopyranosyl-(1→2)-4,6-dideoxy-4-(3-deoxy-L-glycero-tetronamido)-<-D-mannopyranosyl-(1→2)-4,6-dideoxy-4-(3-deoxy-L-glycero-tetronamido)-<-D-mannopyranoside]5-BSA [Saccharide 31] | 1.53 | – | –
[Methyl 2-O-methyl-4,6-dideoxy-4-(3-deoxy-L-glycero-tetronamido)-<-D-mannopyranosyl-(1→2)-bis[4,6-dideoxy-4-(3-deoxy-L-glycero-tetronamido)-<-D-mannopyranosyl-(1→2)]-4,6-dideoxy-4-(3-deoxy-L-glycero-tetronamido)-<-D-mannopyranoside]10-BSA [Saccharide 32] | 1.20 | – | –
[Methyl 2-O-methyl-4,6-dideoxy-4-(3-deoxy-L-glycero-tetronamido)-<-D-mannopyranosyl-(1→2)-tris[4,6-dideoxy-4-(3-deoxy-L-glycero-tetronamido)-<-D-mannopyranosyl-(1→2)]-4,6-dideoxy-4-(3-deoxy-L-glycero-tetronamido)-<-D-mannopyranoside]10-BSA [Saccharide 33] | 1.37 | – | –
